According to patent US11110079B2, “Mebendazole polymorph for treatment and prevention of tumors” (THE JOHNS HOPKINS UNIVERSITY, priority 2015, dated 2021):
Entries after “also recorded” stand apart in the source; their conditions may differ. Where two headings read alike, the source gives them in different places.

Assays:
[1] = in vivo, po, 50 mg/kg
Procedure: (§1) Female C57BL6 mice, 5-6 weeks of age, were purchased from NCl. Animal experimentation was conducted under an approved IACUC protocol and complied with local and national guidelines. All MBZ polymorphs and tablets were administered by oral gavage at a dose of 50 mg/kg. Elacridar was administered by oral gavage at 50 mg/kg 2 hours prior to the administration of MBZ-C. Mice (3 animals/time point) were first anesthetized via intraperitoneal injection of 60 μl of a stock solution containing ketamine hydrochloride (75 mg/kg) (100 mg/ml; Ketamine HCl; Abbot Laboratories, Chicago, Ill., USA) and xylazine (7.5 mg/kg) (100 mg/ml; Xyla-ject®, Phoenix Pharmaceutical, St. Joseph, Mo., USA) in a sterile 0.9% NaCl solution. Then the blood samples were taken by puncturing and aspiring from the left heart ventricle. Blood samples were mixed with 5 mM EDTA and centrifuged at 10000 g for 5 min to obtain the plasma for further analysis.
(§2) Blood, brain and brain tumor tissues were harvested as a function of time after MBZ administration. To compare the pharmacokinetics of MBZ polymorphs, three cohorts of mice each were administered a single dose of 50 mg/kg by oral gavage. For the initial comparison studies, plasma samples were obtained at 1, 2.5, 4, 6, 8, 15, and 24 hours after MBZ administration while brain tissue was only collected at 6 hours. For the comparison studies of polymorph C with or without ELD, plasma and brain tissue samples were obtained at 2.5, 4, and 8 hours after MBZ administration. Brain tumor tissue samples were also obtained for polymorph C alone.
(§3) MBZ and the two metabolites, 2-amino-5-benzoyl-benzimidazole (MBZ-NH2, CAS 52329-60-9) and rac dihydro mebendazole (MBZ-OH, CAS 60254-95-7), were quantified in plasma, brain and brain tumor tissue. Tissue homogenates were prepared at a concentration of 200 mg/ml in plasma prior to extraction. Mebendazole and metabolites were extracted from 50 μl of plasma or tissue homogenates with 0.1 ml of methanol containing 0.5 μg/ml of the internal standard A620223.69. After centrifugation, the supernatant (60 μl) was mixed with water (40 μl) and then transferred into autosampler vials. […] The analytes were monitored using an AB Sciex triple quadrapole™ 5500 mass-spectrometric detector (Applied Biosystems, Foster City, Calif., USA) using electrospray ionization operating in positive mode. The spectrometer was programmed to allow the [MH+] ions of MBZ, MBZ-NH2, MBZ-OH, and A620223.69 at m/z 296.0, 238.0, 298.0, and 287.2, respectively to pass through the first quadrupole (Q1) and into the collision cell (Q2). The daughter ions for MBZ (m/z 263.9), MBZ-NH2 (m/z 105.1), MBZ-OH (m/z 266.0), and A620223.69 (m/z 124.1) were monitored through the third quadrupole (Q3). Calibration curves for MBZ and metabolites were computed using the area ratio peak of the analysis to the internal standard by using a quadratic equation with a 1/x weighting function over the range of 5 to 500 ng/ml (MBZ) and 1 to 500 ng/ml (metabolites) with dilutions of up to 1:100 (v:v). If one or more concentrations were below limits of quantification, a value of ½ the limit of quantification was assigned for pharmacokinetic calculations. If two consecutive time points were below limits of quantification, the last one was excluded from the analysis.
Mean plasma and brain concentrations were calculated at each time point for both MBZ and its metabolites. 1.045 g/ml was used as the average wet rodent brain tissue density (16). Pharmacokinetic parameters were calculated from mean MBZ and its metabolites concentration-time data using noncompartmental methods as analyzed in Phoenix® WinNonlin® version 6.3 (Pharsight Corp., Mountain View, Calif.). Cmax and Tmax were the observed values from the mean concentration data. The AUClast was calculated using the log-linear trapezoidal method. λz was determined from the slope of the terminal phase of the concentration-time profile. The terminal half-life (T1/2) was determined by dividing 0.693 by λz. […]

in vivo = details: for mean B/P ratio: 6 h
Procedure: as §1
For brain distribution studies, mice were perfused under anesthesia with 20 ml ice-cold saline supplemented with 20 μl of 0.02% heparin by injecting slowly into the left heart ventricle using a 20 gauge needle. The right atrium was cut open before to allow the blood outflow. The yellow color of kidney indicated a good perfusion quality that was essential to deplete blood from the brain tissue. In GL261 tumor-bearing mice, GL261 tumor was distinguished from the normal brain by easily recognizable differences in color and shade. GL261 tumor was separated with a scalpel and the normal brain tissue was cut from the contralateral hemisphere. All brain samples were weighed and stored at −80° C. before processing.
as §2
as §3, with “calculations.” for “calculations. If two consecutive time points were below limits of quantification, the last one was excluded from the analysis.”

GL261 glioma cells = experiment: Cytotoxicity in cultured GL261 cells (colorimetric assay, 72 h); type: cell-based, mouse; details: for cytotoxicity in GL261 cells: in vitro
Procedure: Cells were incubated with the indicated drugs for 72 h and the living cells were measured by the colorimetric assay.
(3,14) GL261 and D425 cells were maintained in DMEM media supplemented with 10% fetal bovine serum and antibiotics at 37° C. in humidified air containing 5% CO2.

GL261-luc glioma = details: for mean survival: GL261 model, MBZ polymorphs 50 mg/kg oral; for survival of GL261 glioma-bearing mice: other benzimidazoles, even at higher doses than MBZ; for difference in survival (Mantel-Cox test): GL261-luc glioma-bearing mice, 100 mg/kg oral gavage from day 5
Procedure: All animal studies were approved by the Animal Care and Use Committee (ACUC) of the Johns Hopkins University. The intracranial implantation of GL261-luc in the frontal lobe and D425 cells in the cerebellum of the mouse brain followed the procedure described before (3,4). […] MBZ and other benzimidazoles were prepared by either mixing the power with PBS and sesame oil (1:1, v:v) (Sigma) or by grinding the tablets to powder and resuspending in the aforementioned PBS/sesame oil mixture. Elacridar was prepared as a 10 mg/ml suspension in 0.5% hydroxypropylmethylcellulose and 0.5% Tween 80 in PBS similarly as described before (15).
Animal survival data were analyzed by GraphPad Prism 5.0. The p-values were determined by a Mantel-Cox test. A p-value under 0.05 was accepted as statistically significant.

D425 medulloblastoma = experiment: Orthotopic D425 medulloblastoma xenograft model (survival); type: in vivo, mouse; details: D425 model, elacridar alone; marginal
Procedure: The intracranial implantation of GL261-luc in the frontal lobe and D425 cells in the cerebellum of the mouse brain followed the procedure described before (3,4). Five days after tumor implantation, mice were gavaged with MBZ or the other benzimidazoles at 50 mg/kg five days a week. MBZ and other benzimidazoles were prepared by either mixing the power with PBS and sesame oil (1:1, v:v) (Sigma) or by grinding the tablets to powder and resuspending in the aforementioned PBS/sesame oil mixture. Elacridar was prepared as a 10 mg/ml suspension in 0.5% hydroxypropylmethylcellulose and 0.5% Tween 80 in PBS similarly as described before (15).

[2] = female, C57BL6, mouse, po, 50 mg/kg

With `COC(=O)Nc1nc2ccc(C(O)c3ccccc3)cc2[nH]1` (racemic) [MBZ-OH, rac dihydro mebendazole] the “plasma AUC0-24 h of metabolite” value ([1]; mouse) was 5,781 h*ng/ml.
For `COC(=O)Nc1nc2ccc(C(=O)c3ccccc3)cc2[nH]1` [MBZ-A, Mebendazole], the “plasma AUC0-24 h” value ([1]; female, C57BL6, mouse) was 3,052 h*ng/ml, the “plasma AUC0-24 h relative to MBZ-C” value ([1]; female, C57BL6, mouse) was 19% and the “mean B/P ratio” value (in vivo; [2]) was 0.32. For the same compound, the “cytotoxicity in GL261 cells” value (GL261 glioma cells) was “equal cytotoxicity”.
For `COC(=O)Nc1nc2ccc(C(=O)c3ccccc3)cc2[nH]1` [MBZ-B, Mebendazole], the “toxicity in GL261 glioma-bearing mice” value (GL261-luc glioma; 50 mg/kg oral) was “presumably died from drug toxicity”, the “treatment-related death among 6 treated mice” value (GL261-luc glioma; GL261 glioma-bearing mice, 50 mg/kg oral) was 1 and the mean survival (GL261-luc glioma) was 45 days. The “plasma AUC0-24 h” value ([1]; female, C57BL6, mouse) was 26,474 h*ng/ml, the “plasma AUC0-24 h relative to MBZ-C” value ([1]; female, C57BL6, mouse) was 165% and the “mean B/P ratio” value (in vivo; [2]) was 0.64. For the same compound, the “cytotoxicity in GL261 cells” value (GL261 glioma cells) was “equal cytotoxicity”.
For `COC(=O)Nc1nc2ccc(C(=O)c3ccccc3)cc2[nH]1` [MBZ-C, Mebendazole], the mean survival (GL261-luc glioma) was 48.5 days, the “efficacy in GL261 glioma model” value (GL261-luc glioma; oral gavage 50 mg/kg, from day 5 after implantation, 50 mg/kg) was “best efficacy” and the “plasma AUC0-24 h” value ([1]; female, C57BL6, mouse) was 16,039 h*ng/ml. For the same compound, the Kp (in vivo; female, C57BL6, mouse, AUC0-24h B/P ratio) was 0.82, the “brain Cmax, equivalent concentration” value (in vivo; female, C57BL6, mouse, po) was 7.1 µM and the peak brain concentration (in vivo; [2]) was 2,016 ng/g. The Kp at 8 h (in vivo; female, C57BL6, mouse, po, 50 mg/kg, brain/plasma (B/P) ratio on average) was 0.75, the “change of brain concentration of MBZ in terms of AUC0-8h” value (in vivo; mouse, po, 50 mg/kg) was “did not significantly change” and the “time of peak brain concentration after oral administration” value (in vivo; mouse, po, 50 mg/kg) was “Four”. The “cytotoxicity in GL261 cells” value (GL261 glioma cells) was “equal cytotoxicity”.
With `Nc1nc2ccc(C(=O)c3ccccc3)cc2[nH]1` [MBZ-NH2, 2-amino-5-benzoyl-benzimidazole] the “plasma AUC0-24 h of metabolite” value ([1]; female, C57BL6, mouse) was 10,516 h*ng/ml, the “B/P ratio of MBZ-NH2” value (in vivo; female, C57BL6, mouse) was 0.12 and the “elevation of B/P ratio by co-administration of elacridar” value (in vivo; female, C57BL6, mouse) was 2.5 folds. For the same compound, the “distribution in GL261 brain tumor vs contralateral normal brain tissue” value (in vivo; [2]) was “preferentially accumulated in the GL261 brain tumor”, the “elevation of AUC0-8 h by co-administration of elacridar” value (in vivo; mouse) was 2.4 folds and the “brain levels of metabolite in terms of Cmax and AUC0-24 h” value (in vivo; mouse, po, 50 mg/kg) was “much lower levels than MBZ-OH”. The “distribution in GL261 brain tumor vs contralateral normal brain tissue” value (in vivo; mouse, po, 50 mg/kg) was “significantly higher levels than in the contralateral brain” and the “cytotoxicity in GL261 cells” value (GL261 glioma cells) was “only a marginal cytotoxicity; also recorded: least cytotoxic”.
With `CCCSc1ccc2nc(NC(=O)OC)[nH]c2c1` [albendazole] the “survival of GL261 glioma-bearing mice” value (GL261-luc glioma) was “failed or only marginally improved the survival”.
Compound `COc1cc2c(cc1OC)CN(CCc1ccc(NC(=O)c3cccc4c(=O)c5cccc(OC)c5[nH]c34)cc1)CC2` [elacridar] has a median survival (GL261-luc glioma; GL261, single agent 50 mg/kg, control 29.5 days) of 34 days, a survival benefit (D425 medulloblastoma) of 9 days and an IC50 (GL261 glioma cells; GL261 mouse glioma cells) of 5.8 µM.
In the case of `COC(=O)Nc1nc2ccc(Sc3ccccc3)cc2[nH]1` [fenbendazole], the “difference in survival (Mantel-Cox test)” value (GL261-luc glioma) is reported as “not significant” and the “survival of GL261 glioma-bearing mice” value (GL261-luc glioma) is reported as “failed or only marginally improved the survival”.
In the case of `COC(=O)Nc1nc2cc(C(=O)c3ccc(F)cc3)ccc2[nH]1` [flubendazole], the “difference in survival (Mantel-Cox test)” value (GL261-luc glioma) is reported as “not significant” and the “survival of GL261 glioma-bearing mice” value (GL261-luc glioma) is reported as “failed or only marginally improved the survival”.
For `COC(=O)Nc1nc2cc([S+]([O-])c3ccccc3)ccc2[nH]1` (stereo not drawn) [oxifendazole], the “difference in survival (Mantel-Cox test)” value (GL261-luc glioma) was “not significant” and the “survival of GL261 glioma-bearing mice” value (GL261-luc glioma) was “failed or only marginally improved the survival”.
For `c1ccc2[nH]c(-c3cscn3)nc2c1` [thiabendazole, Thiabendazole], the “difference in survival (Mantel-Cox test)” value (GL261-luc glioma) was “not significant” and the “survival of GL261 glioma-bearing mice” value (GL261-luc glioma) was “failed or only marginally improved the survival”.
